From US10696973B2, “Inducible eukaryotic expression system” (Regeneron Pharmaceuticals, Inc., priority 2002, dated 2020)

Columns and labels:
Assay type in all cases: cell-based
[1] = target: T1, TetR-ERLBDT2 regulatory fusion protein (UniProt P03372+P04483, G400V/L544A/M543A); assay: hFcγRI expression regulated by TetR-ERLBDT2 in CHO K1-FcR/pTE313 clones, FITC-hFc staining and flow cytometry; conditions: clone D124 (pool C12); OHT present without Dox
T1 construct: 11 amino acid linker […]; expressed in transfected cells; host or cells: CHO K1-FcR cells (CHO K1 with pTE158) stably transfected with pTE313
T1 sequence (P04483+P03372 fused P03372:G400V/P03372:M543A/P03372:L544A): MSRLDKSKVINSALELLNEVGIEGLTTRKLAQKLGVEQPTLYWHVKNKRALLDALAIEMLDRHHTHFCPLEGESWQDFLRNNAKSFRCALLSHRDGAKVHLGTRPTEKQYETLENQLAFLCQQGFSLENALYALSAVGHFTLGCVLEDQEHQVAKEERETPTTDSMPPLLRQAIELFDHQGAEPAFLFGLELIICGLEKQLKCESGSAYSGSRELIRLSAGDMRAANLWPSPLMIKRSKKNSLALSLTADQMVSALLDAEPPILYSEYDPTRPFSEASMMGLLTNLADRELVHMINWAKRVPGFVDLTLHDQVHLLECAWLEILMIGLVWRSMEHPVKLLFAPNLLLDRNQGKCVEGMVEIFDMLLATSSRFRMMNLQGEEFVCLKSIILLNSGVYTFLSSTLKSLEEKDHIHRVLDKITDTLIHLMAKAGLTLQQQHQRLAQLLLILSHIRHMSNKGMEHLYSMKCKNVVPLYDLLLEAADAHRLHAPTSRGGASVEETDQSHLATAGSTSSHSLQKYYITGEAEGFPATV
Experimental: The cells were placed in the culture medium (10% fetal bovine serum, 90% Ham's F-12, 2 mM L-glutamine; all reagents were from Life Technologies, Rockville, Md.) containing 500 G418 (Life Technologies) for 12 days. […] Briefly, cells grown on 10 cm culture plates were washed once with Dulbecco's phosphate-buffered saline (PBS) without calcium chloride and magnesium chloride (Life Technologies). Two milliliters of 0.25% trypsin (Life Technologies) was added to each plate and incubated at 37° C. for 4-5 min. The plates were swirled until the cells detached from the plate. Four milliliters of culture medium was immediately added to each plate of the detached cells. […] Washed cells capable of binding FITC-hFc were measured by flow cytometry on a MOFLO™ cell sorter (Cytomation; Fort Collins, Colo.). […] The total pool of fluorescent cells from the G418-resistant population was collected by flow cytometry, expanded then analyzed by flow cytometry for expression of hFcγRI. […]
Cells were incubated for three days then stained with FITC-hFc to detect the presence of hFcγRI. The top 60% of hFcγRI-positive cells from the culture induced with 1 μg/ml Dox were isolated to yield pool B 11, and cells with the lowest 30% fluorescence were isolated from cells grown in medium without Dox to yield pool B 12. […]

[2] = target: T2, Arc2-ERLBDT2 fusion protein (Homo sapiens, UniProt P03372, G400V/L544A/M543A); assay: hFcγRI expression regulated by Arc2-ERLBDT2 in CHO K1/pTE534 cells transfected with pTE529, FITC-hFc staining and flow cytometry
T2 construct: expressed in transfected cells; host or cells: CHO K1/pTE534 cells (A2) or RGC12 cells, a CHO K1 derivative (A3), stably transfected with pTE529
T2 sequence (P03372 with tags, fused parts or gaps G400V/M543A/L544A): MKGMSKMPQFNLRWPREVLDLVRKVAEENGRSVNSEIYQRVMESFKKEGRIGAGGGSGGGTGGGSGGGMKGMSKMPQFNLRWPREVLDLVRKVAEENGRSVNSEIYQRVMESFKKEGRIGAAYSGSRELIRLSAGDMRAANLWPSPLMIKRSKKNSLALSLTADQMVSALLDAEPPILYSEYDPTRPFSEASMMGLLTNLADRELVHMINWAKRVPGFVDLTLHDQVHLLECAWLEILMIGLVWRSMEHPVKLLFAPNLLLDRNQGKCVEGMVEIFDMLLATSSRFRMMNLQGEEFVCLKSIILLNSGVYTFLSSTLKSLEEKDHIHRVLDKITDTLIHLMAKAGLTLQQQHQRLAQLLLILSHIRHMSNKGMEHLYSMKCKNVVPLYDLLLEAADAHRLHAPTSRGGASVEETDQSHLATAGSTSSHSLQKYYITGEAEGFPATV
Experimental: CHO K1 cells (2×10^6) were transfected with pTE534 using Lipofectamine™ as described above. The cells were placed in the culture medium (10% fetal bovine serum, 90% Ham's F-12, 2 mM L-glutamine; all reagents were from Invitrogen Life Technologies, Carlsbad, Calif.) containing 400 μg/ml G418 (Invitrogen Life Technologies) for 12 days. Cells resistant to G418 were trypsinized, pooled, and stained with 2 μg/ml of FITC-conjugated human IgG, Fc fragment (FITC-hFc) as described above. […] Cells that expressed hFcγRI bound FITC-hFc and were isolated based on their fluorescence by flow cytometry on a MOFLO™ cell sorter. Cells with the highest 3% fluorescence in this population were isolated, pooled, and expanded. This hFcγRI-positive pool was enriched by repeating the cell surface staining with FITC-hFc and sorting the top 30% most fluorescent cells in the population to yield pool B. Cells in pool B that were among the top 20% expressing hFcγRI were isolated to yield pool C. Pool C2 (CHOK1/pTE534) was used to generate inducible cell lines regulated by Arc-ERLBDT2.
CHO K1/pTE534 cells (2×10^6/dish) were transfected with either pRG985, an empty vector, or pTE529 using Lipofectamine™. […] The cells were stained with FITC-hFc as described above and analyzed by flow cytometry. […] This pool was expanded in the presence of OHT for 10 days, stained for hFcγRI expression and analyzed by flow cytometry. […]

[3] = target: T2, Arc2-ERLBDT2 fusion protein; assay: Time course of 13SC1132 induction in clone C110 after removal of OHT, mean fluorescence of cell surface-displayed protein; conditions: clone C110 grown in 200 nM OHT, then washed; measured 3, 6 and 9 days after removal
Experimental: RGC12 cells (2×10^6) were transfected with 5 μg pTE529 encoding the Arc-ERLBDT2 protein driven by a ubiquitin promoter (FIG. 9) using Lipofectamine™ as described above. The cells were placed in the culture medium (10% fetal bovine serum, 90% Ham's F-12, 2 mM L-glutamine; all reagents were from lnvitrogen Life Technologies, Carlsbad, Calif.) containing 10 μg/ml puromycin (CalBiochem) for 14 days. Cells resistant to puromycin, expressing the Arc2-ERLBDT2 fusion protein, were then transfected with pTE689 encoding protein of interest […] (FIG. 8) as described above except the culture medium contained 200 nM OHT. […] Cells that secreted the highest levels of 13SC1132 as measured by 13SC1132 complexed with FcγRI on the cell surface (top 5%) were isolated by flow cytometry on a MOFLO™ cell sorter. Cells were grown in the presence of OHT for 7 days, and treated for screening as described above, but the cells with the lowest 5% cell surface fluorescence were isolated in order to enrich for clones with regulated expression of 13SC1132. Cells were then grown in the absence of OHT, treated for flow cytometry, and single cells with the highest 0.1% fluorescence in this population were isolated, expanded, and screened for 13SC1132 expression in the absence of OHT and tight regulation in the presence of OHT. […]

4-hydroxytamoxifen [OHT] was tested, and the “level of hFcγRI expression” value [1] was “no detectable level of hFcγRI”, the “level of hFcγRI expression” value ([2]; clone C17, OHT present in the medium) was “No detectable level of hFcγRI” and the “cells in pool that did not express hFcγRI” value ([2]; sorted pool expanded in the presence of OHT for 10 days) was “Over 70%”. For the same substance, the “time after OHT removal until full induction of 13SC1132 expression” value [3] was 6 days.
